# Results taken from patent publication US20220202897A1, “USE OF CYCLO(HIS-PRO) (CHP) FOR PREVENTING, AMELIORATING, OR TREATING FIBROSIS” (NOVMETAPHARMA CO., LTD., priority 2019, published 2022).
# Columns and labels:
# [1] = tested on: human-derived proximal tubular epithelial cells; experiment: Cytological morphology after CHP treatment in a human-derived proximal tubular epithelial cell fibrosis model (TGFβ-induced); type: cell-based; details: recombinant TGFβ 2 ng/ml; CHP 4, 20 and 100 μg/ml; FIG. 2
# [2] = tested on: human-derived proximal tubular epithelial cells; experiment: Western blot of E-cadherin, fibronectin and pSTAT3 proteins in the human-derived proximal tubular epithelial cell fibrosis model; type: cell-based; details: TGFβ 2 ng/ml, CHP 4, 20 and 100 μg/ml, FIG. 3
# From the text: Under the same conditions as in Example 1-2, the expression levels of proteins of E-cadherin, a junction marker, fibronectin, a fibrosis marker, and pSTAT3, a fibrosis transcription factor, after CHP administration were checked by Western blot.
# [3] = tested on: human-derived glomerular endothelial cells; experiment: Cytological morphology after CHP treatment in a human-derived glomerular endothelial cell fibrosis model (rTGFβ-induced); type: cell-based; details: rTGFβ 2 ng/ml; CHP 40 and 100 μg/ml; FIG. 4
# Huh7 liver cell line = experiment: Fibronectin protein expression (Western blot) in a human-derived hepatocyte fibrosis model; type: cell-based; details: Huh7 cells; TGFβ 2 ng/ml with CHP 250 ng/ml; 48 hours; corrected by GAPDH; FIG. 5
# Method: DMEM medium and FBS were purchased from Hyclone for culturing the Huh7 liver cell line, and TGFβ for inducing fibrosis was purchased from R&D Systems. The cells were cultured in a DMEM medium supplemented with 10% FBS in a 5% CO2 incubator at 37° C., treated with TGFβ at a concentration of 2 ng/ml and treated with CHP at 0, 62.5, 125, or 250 ng/ml, and cells were harvested at 48 hours of treatment.
# RIPA lysis buffer and Halt™ protease and phosphatase inhibitor cocktails was purchased from Thermo to analyze the expression of fibronectin protein, a fibrotic protein, and for protein quantification, BCA protein quantification kit was purchased from Thermo. […] The supernatant was collected, and the protein concentration was measured by BCA quantitation, and the protein was separated from the same amount of samples using the Bolt™ protein gel electrophoresis system, and transferred to a nitrocellulose membrane. […] After washing 3 times for 10 minutes with TBST, the expression level was measured by reacting with ECL. The size of the appearing band was quantified using the ImageJ program and corrected by dividing the fibronectin band size value by the GAPDH band size value. Statistical significance was analyzed using Student's t-test statistical method with the control group. #p<0.05 (negative control group: TGFβ treated control group).
# [4] = tested on: animal model of liver fibrosis; experiment: Fibronectin protein expression (Western blot) in liver tissue of a high-fat-diet animal model of liver fibrosis; type: in vivo, C57BL/6 mice; details: 60% fat high-fat diet mice; CHP 5 or 35 mg/kg orally once a day for 16 weeks; vs HFD control; effect stronger according to the concentration; FIG. 6
# Method: (§1) For liver fibrosis experiments in animals, 12-week-old C57BL/6 mice fed a high-fat diet containing 60% fat for 6 weeks were purchased from Jackson, USA, and Research diets D12492, a 60% fat-containing high-fat dietary feed purchased from Saeron Bio, were ingested for 17 weeks. Mice were bred to allow free access to feed and water in an environment of 24±3° C. C57BL/6 mice fed a high-fat diet for 6 weeks were acclimatized to the breeding environment for 1 week, and their weights were measured and evenly divided into 3 groups as shown in Table 1. CHP was orally administered to each group at a concentration of 5 mg/kg or 35 mg/kg once a day for 16 weeks, and the same amount of distilled water was orally administered to the control group in the same manner.
# Isoflurane required for anesthesia and dissection of mice was purchased from Hana Pharmaceutical, and Vetequip's RC2 Rodent Circuit Controller Anesthesia System was prepared. Phosphate buffered saline (PBS) was purchased from Hyclone. To isolate the mouse liver tissue, the mice were anesthetized by respiratory anesthesia with 3-3.5% isoflurane. After blood was drawn from the heart of anesthetized mice, the liver tissue was immediately excised and washed with PBS. […] Statistical significance was analyzed using the Student's t-test statistical method with HFD control group (*p<0.05, **p<0.01).
# L-132 lung cell line = experiment: Fibronectin protein expression (Western blot) in a human-derived lung cell fibrosis model; type: cell-based; details: L-132 cells; TGFβ 2 ng/ml with CHP 125 ng/ml; 48 hours; p<0.01 vs TGFβ-treated control; FIG. 7
# Method: MEM medium and FBS were purchased from Hyclone for culturing the L-132 lung cell line, and TGFβ for inducing fibrosis was purchased from R&D Systems. The cells were cultured in a MEM medium supplemented with 10% FBS in a 5% CO2 incubator at 37° C., treated with TGFβ at a concentration of 2 ng/ml and treated with CHP at 0, 62.5, or 125 ng/ml, and cells were harvested at 48 hours of treatment.
# Western blotting was performed in the same manner as in Example 3-2 to analyze the expression of fibronectin protein, a fibrotic protein. Statistical significance was analyzed using Student's t-test statistical method with the control (#p<0.05 (negative control group: TGFβ-treated control group), **p<0.01 (TGFβ-treated control group: CHP 125 ng/ml-treated group)).
# [5] = tested on: animal model of pulmonary fibrosis; experiment: TGFβ and Collagen 3 gene expression (real-time PCR) in lung tissue of a high-fat-diet animal model of pulmonary fibrosis; type: in vivo, C57BL/6 mice; details: high-fat diet mice; CHP 5 and 35 mg/kg orally once a day for 16 weeks; corrected by GAPDH; FIG. 8
# [6] = tested on: HS68 skin fibroblast-derived cell line; experiment: Fibronectin protein expression (Western blot) in a human-derived skin cell fibrosis model; type: cell-based; details: HS68 cells; TGFβ 2 ng/ml with CHP 500 ng/ml; 48 hours; p<0.05 vs TGFβ-treated control; FIG. 9
# Method: DMEM medium and FBS were purchased from Hyclone for culturing the HS68 skin fibroblast-derived cell line, and TGFβ for inducing fibrosis was purchased from R&D Systems. The cells were cultured in a DMEM medium supplemented with 10% FBS in a 5% CO2 incubator at 37° C., treated with TGFβ at a concentration of 2 ng/ml and treated with CHP at 0, 62.5, 125, 250, or 500 ng/ml, and cells were harvested at 48 hours of treatment.
# Western blotting was performed in the same manner as in Example 3-2 to analyze the expression of fibronectin protein, a fibrotic protein. Statistical significance was analyzed using Student's t-test statistical method with the control (#p<0.05 (negative control group: TGFβ-treated control group), *p<0.05 (TGFβ-treated control group: CHP 500 ng/ml-treated group)).
# [7] = tested on: animal model of cardiac fibrosis; experiment: Fibrosis marker gene expression (real-time PCR) in heart tissue of a high-fat-diet animal model of cardiac fibrosis; type: in vivo, C57BL/6 mice; details: high-fat diet mice; CHP 5 and 35 mg/kg orally once a day for 16 weeks; corrected by β-actin; no further decrease with concentration; FIG. 10
# Method: as §1
# For cardiac fibrosis experiments in animals, an animal model of cardiac fibrosis was established in the same manner as in Example 4-1.
# Isoflurane required for anesthesia and dissection of mice was purchased from Hana Pharmaceutical, and Vetequip's RC2 Rodent Circuit Controller Anesthesia System was prepared. Phosphate buffered saline (PBS) was purchased from Hyclone. To isolate the mouse heart tissue, the mice were anesthetized by respiratory anesthesia with 3-3.5% isoflurane. After blood was drawn from the heart of the anesthetized mice, the heart tissue was immediately excised, 50 mg of the heart was cut out, and RNA extraction and gene expression analysis were performed in the same manner as in Example 6-2. The expression value of each gene was corrected by dividing by the expression value of (β-actin, a housekeeping gene.
# Statistical significance was analyzed using one-way ANOVA statistical analysis, and the Dunnett post hoc test was used to compare the significance with the HFD control group (*p<0.05, **p<0.01, ****p<0.0001).
# [8] = tested on: animal model of fat fibrosis; experiment: Fibrosis marker gene expression (real-time PCR) in epididymal adipose tissue of a high-fat-diet animal model of fat fibrosis; type: in vivo, C57BL/6 mice; details: high-fat diet mice; CHP 5 and 35 mg/kg orally once a day for 16 weeks; corrected by GAPDH; FIG. 11
# Method: as §1
# For fat fibrosis experiments in animals, an animal model of fat fibrosis was established in the same manner as in Example 4-1.
# Isoflurane required for anesthesia and dissection of mice was purchased from Hana Pharmaceutical, and Vetequip's RC2 Rodent Circuit Controller Anesthesia System was prepared. Phosphate buffered saline (PBS) was purchased from Hyclone. To isolate the mouse adipose tissue, the mice were anesthetized by respiratory anesthesia with 3-3.5% isoflurane. After blood was drawn from the heart of the anesthetized mice, the epididymal adipose tissue (EAT) was immediately excised, 100 mg of the fat was cut out, and RNA extraction and gene expression analysis were performed in the same manner as in Example 6-2. The expression value of each gene was corrected by dividing by the expression value of GAPDH, a housekeeping gene.
# Statistical significance was analyzed using one-way ANOVA statistical analysis, and the Dunnett post hoc test was used to compare the significance with the control group (*p<0.05, **p<0.01).
smiles,measurement,setting,value
"O=C1N[C@@H](Cc2cnc[nH]2)C(=O)N2CCC[C@@H]12 [CHP, Cyclo-HisPro]",cytomorphological fibrosis (cytoskeletal remodeling and morphological changes),[1],fibrosis was improved
same,protein expression of E-cadherin (junction marker),[2],restored
same,protein expression of fibronectin (fibrosis marker),[2],decreased
same,protein expression of pSTAT3 (fibrosis transcription factor),[2],decreased
same,cytomorphological fibrosis (cytoskeletal remodeling and morphological changes),[3],fibrosis was improved
same,expression level of fibronectin protein,Huh7 liver cell line,showed a tendency to decrease
same,expression level of fibronectin protein in liver tissue,[4],significantly decreased
same,expression level of fibronectin protein,L-132 lung cell line,significantly decreased
same,expression of Collagen 3 gene in lung,[5],decreased more significantly according to the CHP administration concentration
same,expression of TGFβ gene in lung,[5],decreased more significantly according to the CHP administration concentration
same,expression level of fibronectin protein,[6],significantly decreased
same,expression of Collagen 1 gene in heart,[7],significantly reduced
same,expression of Collagen 3 gene in heart,[7],significantly reduced
same,expression of Collagen 4 gene in heart,[7],significantly reduced
same,expression of Fibronectin gene in heart,[7],significantly reduced
same,expression of TGFβ gene in heart,[7],significantly reduced
same,expression of CTGF gene in fat (epididymal adipose tissue),[8],markedly reduced
same,expression of Collagen 3 gene in fat (epididymal adipose tissue),[8],markedly reduced
same,expression of Fibronectin gene in fat (epididymal adipose tissue),[8],markedly reduced
same,expression of TGFβ gene in fat (epididymal adipose tissue),[8],markedly reduced
